Data from PMC12270663, “Cagrilintide lowers bodyweight through brain amylin receptors 1 and 3” (eBioMedicine, 2025).

Tests used:
WT 129S2 chow-fed mice = assay: Study 1: acute food intake and body weight response; type: in vivo, mouse; settings: all doses (3, 30, 300 nmol/kg s.c.)
Experimental: Thirty-two 12 week-old male WT 129S2/SvEv mice (Janvier Elevage, France) were individually housed in food monitoring cages (BioDAQ, New Brunswick, NJ, USA). Mice were housed in a controlled environment maintained at 21 ± 2 °C, under a 12/12 h light–dark cycle (lights off at 10.00 h). They were adapted to the cages and hoppers for 2 weeks before being tested. Mice were fed water and chow diet ad libitum (3.14 kcal/g of food; Kliba, Switzerland, cat# 3436).
Mice were injected subcutaneously (s.c.) at dark onset after a 4 h fast in the light phase with vehicle, 3 nmol/kg, 30 nmol/kg or 300 nmol/kg of cagrilintide.

[1] = test system: WT and RAMP1/3 KO high fat diet fed mice; assay: Study 3: 3-week treatment, food intake and body weight; type: in vivo, mouse
Experimental: Male mice were housed in a controlled environment maintained at 21 ± 2 °C, under a 12/12 h light–dark cycle (lights off at 11.00 h). Mice had ad libitum access to standard chow (3.14 kcal/g of food; Kliba, Switzerland, cat# 3436) and water, until 3–4 weeks old. Twenty-four WT and twenty-four RAMP 1/3 KO male mice were fed a 60% fat HFD (5.24 kcal/g of food; SSNIFF Spezialdiäten GmbH, Germany, cat# EF D12452) provided ad libitum for 18 weeks. Then mice were fed to a 45% fat HFD (4.73 kcal/g of food; SSNIFF Spezialdiäten GmbH, Germany, cat# EF D12451) provided ad libitum for 6 weeks until the end of the study. The mice were group housed (3–4 mice per cage) until 1 week before the 21-day treatment period. Each cage was equipped with a red plastic house, tissue paper, nest-building material and wood shavings. Prior to the 21-day treatment, mice were injected with vehicle for three days to acclimate to the daily subcutaneous injections and reduce stress associated with the injections.
(§1) Mice were s.c. injected once a day for 3 weeks 1 h before dark onset between 9.00 and 10.00 h. Prior to injection, daily body weight and food intake were measured manually. On the day of sacrifice, mice were anesthetised with pentobarbital (100 mg/kg, i.p., Cantonal Pharmacy of Zurich, Switzerland) 24 h after receiving the last dose of peptide.

[2] = test system: WT and RAMP1/3 KO high fat diet fed mice; assay: Study 3: body composition by EchoMRI; type: in vivo, mouse; settings: 3 nmol/kg/d s.c., 3 weeks
Experimental: as §1
Brains were harvested, snap frozen on dry ice and kept at −80 °C until mRNA extraction for next-generation sequencing (NGS) analysis. Blood samples were collected from the right ventricle of the heart during the sacrifice in 1 mL EDTA-coated tubes containing dipeptidyl peptidase-4 inhibitor (10 μL/mL blood; Sigma Aldrich, Switzerland, cat# DPP4-010) and protease inhibitor (30 μL/mL blood; Sigma Aldrich, Switzerland, cat# P2714). After centrifugation, plasma was kept at −80 °C. The mice were stored at −20 °C until body composition analysis was performed.
Lean and fat mass were measured post-mortem using EchoMRI (EchoMRI LLC, USA) at the Zurich Integrative Rodent Physiology (University of Zurich). Calibrations and measurements were performed according to manufacturer's instructions. Two measurements were performed and averaged per mouse. Fat mass and lean mass values are expressed as percent of body weight.

[3] = test system: area postrema (AP) neurons of WT and RAMP1/3 KO mice; assay: Study 4 cohort 1: cFos positive neurons, AP; type: in vivo, mouse; settings: for Predicted (LS) mean diff., AP cFos after square root transformation: second statistical test, Figure 4b
Experimental: (§2) Mice were group housed in a controlled environment maintained at 21 ± 2 °C, under a 12/12 h light–dark cycle (lights off at 11.00 h). In the first cohort, 25 male WT and 25 male RAMP1/3 KO mice aged between 12 and 20 week-old were fed chow diet and maintained under group housing condition. In the second cohort, 18 male WT, 18 male RAMP1 KO, 18 male RAMP3 KO and 18 male RAMP1/3 KO mice aged between 10 and 15 week-old were fed chow diet and maintained under group housing condition.
For both cohorts, animals were deeply anesthetised 90 min later (pentobarbital 100 mg/kg, i.p) and transcardially perfused with cold 0.1 M of phosphate buffer (PB) for 1.5 min followed by 4% of paraformaldehyde (PFA) in PB for 2.5 min. Brains were removed and postfixed overnight in 4% of PFA and cryoprotected in 20% of sucrose-PB for 24 h. Brains were frozen in hexane on dry ice and stored at −80 °C until sectioning. Stereological brain sampling of the areas of interest was performed and brain were serially cut on a cryostat (Leica Biosystems, Germany, cat# CM3050S), mounted on Superfrost Plus slides (Thermo Fisher Scientific, Reinach, Switzerland), and cryoprotected in 50% of PB, 30% of ethylene glycol, 20% of glycerol, and subsequently stored at −20 °C.
Blocking of the mouse brain sections was performed with 0.4% Triton–4% normal goat serum in PBS for 2 h at room temperature. AP/NTS and LPBN sections were incubated at 4 °C for 48 h with rabbit anti-Fos antibody (1:500, Cell signalling technology, Switzerland, Cat# 2250, RRID: AB_2247211), and then after PBS washes, incubated with goat anti-rabbit Alexa Fluor CY3 (1:200, LuBio Science GmbH, Switzerland for Jackson Immunoresearch, Cat# 111-165-144) or alexa fluor 488 for 2 h at room temperature. After thorough washing in PBS, the sections were counterstained with DAPI, mounted immediately and coverslipped with Vectashield antifade Mounting Medium (Vectorlabs, Burlingame, USA, cat# H-1400).[40]
Photomicrographs of all sections containing AP, NTS and LPBN were taken at 20× magnification using Zeiss Axio Scan.Z1 slidescanner (Center for Microscopy and Image Analysis UZH, Zeiss, Germany). All images for each study were acquired using the same exposure time. Scanned images were imported into QuPath (QuPath 0.5.0) for quantification. Three to four sections were counted and averaged per area of interest. A polygon tool was used manually to determine the boundary of the region of interest of the brain section. A cell detection tool was used to detect every cell in the section by using a built-in cell segmentation algorithm. The cell detection tool was used on the DAPI channel to make sure that only a cell was recognised and not the background or artefact by system. A detection classifier was created by using the create detection classifier function. The numbers of positive counted DAPI cells containing a cFos signal were automatically counted within the region. The experimental group was blinded to the experimenter during the analysis.

[4] = test system: LPBN neurons of WT and RAMP1/3 KO mice; assay: Study 4 cohort 1: cFos positive neurons, LPBN; type: in vivo, mouse; settings: both 3 nmol/kg i.p., 90 min
Experimental: as §2
For both cohorts, animals were deeply anesthetised 90 min later (pentobarbital 100 mg/kg, i.p) and transcardially perfused with cold 0.1 M of phosphate buffer (PB) for 1.5 min followed by 4% of paraformaldehyde (PFA) in PB for 2.5 min. Brains were removed and postfixed overnight in 4% of PFA and cryoprotected in 20% of sucrose-PB for 24 h. Brains were frozen in hexane on dry ice and stored at −80 °C until sectioning. […]
(§3) Photomicrographs of all sections containing AP, NTS and LPBN were taken at 20× magnification using Zeiss Axio Scan.Z1 slidescanner (Center for Microscopy and Image Analysis UZH, Zeiss, Germany). […] Scanned images were imported into QuPath (QuPath 0.5.0) for quantification. Three to four sections were counted and averaged per area of interest. […] The numbers of positive counted DAPI cells containing a cFos signal were automatically counted within the region. […]

[5] = test system: AP neurons of WT, RAMP1 KO, RAMP3 KO and RAMP1/3 KO mice; assay: Study 4 cohort 2: cFos positive neurons, AP; type: in vivo, mouse; settings: 3 nmol/kg i.p.
Experimental: as §2
Cohort 2: WT, RAMP1 KO, RAMP3 KO and RAMP1/3 KO were injected i.p. at dark onset after a 12 h fast in the light phase with vehicle or cagrilintide (3 nmol/kg) (n = 6/group).
For both cohorts, animals were deeply anesthetised 90 min later (pentobarbital 100 mg/kg, i.p) and transcardially perfused with cold 0.1 M of phosphate buffer (PB) for 1.5 min followed by 4% of paraformaldehyde (PFA) in PB for 2.5 min. […]
as §3

rAMYR3 = test system: rAMYR3; design: method as in PMID 34288673; settings: pEC50 = -LogEC50; cited from earlier work
rCTR(a) = test system: rCTR(a); design: method as in PMID 34288673; settings: pEC50 = -LogEC50; cited from earlier work

## CC[C@H](C)[C@H](NC(=O)[C@@H]1CCCN1C(=O)CNC(=O)[C@H](Cc1ccccc1)NC(=O)[C@H](CC(N)=O)NC(=O)[C@H](CC(N)=O)NC(=O)[C@H](CO)NC(=O)[C@H](CO)NC(=O)[C@H](Cc1c[nH]cn1)NC(=O)[C@H](CCCNC(=N)N)NC(=O)[C@H](CC(C)C)NC(=O)[C@H](Cc1ccccc1)NC(=O)[C@H](CCC(=O)O)NC(=O)[C@H](C)NC(=O)[C@H](CC(C)C)NC(=O)[C@H](CCCNC(=N)N)NC(=O)[C@H](CCC(N)=O)NC(=O)[C@@H](NC(=O)[C@H](C)NC(=O)[C@@H]1CSSC[C@H](NC(=O)[C@H](CCCCN)NC(=O)CC[C@H](NC(=O)CCCCCCCCCCCCCCCCCCC(=O)O)C(=O)O)C(=O)N[C@@H](CC(N)=O)C(=O)N[C@@H]([C@@H](C)O)C(=O)N[C@@H](C)C(=O)N[C@@H]([C@@H](C)O)C(=O)N1)[C@@H](C)O)C(=O)N[C@@H](CC(C)C)C(=O)N1CCC[C@H]1C(=O)N1CCC[C@H]1C(=O)N[C@H](C(=O)N[C@@H](CC(N)=O)C(=O)N[C@H](C(=O)NCC(=O)N[C@@H](CO)C(=O)N[C@@H](CC(N)=O)C(=O)N[C@H](C(=O)N1CCC[C@H]1C(N)=O)[C@@H](C)O)C(C)C)[C@@H](C)O [Cagrilintide]
WT 129S2 chow-fed mice
  acute effect on eating: significantly reduced eating
[1]; RAMP1/3 KO mice, 3 nmol/kg/d s.c., 21 days
  effect on body weight: no effect
[1]; RAMP1/3 KO mice, cagrilintide 3, sCT 150 nmol/kg s.c.
  acute anorectic effect on day 1: no effect
[1]; WT mice, 3 nmol/kg/d s.c.
  day 21 body weight loss vs WT Veh: −66%
[1]; WT mice, cagrilintide 3, sCT 150 nmol/kg s.c. SID, mean ± SEM, n = 8/group
  Body weight change after 3-week treatment: -3.4 ± 0.51 g
[1]; WT mice, cagrilintide 3, sCT 150 nmol/kg s.c., mean ± SEM, n = 7–8/group
  Food intake on Day 1: 1.2 ± 0.1 g
[2]
  relative fat mass, RAMP1/3 KO compared to WT-treated counterparts: +32%
  relative lean mass, RAMP1/3 KO compared to WT-treated counterparts: −22%
[3]; 3 nmol/kg i.p., cohort 1, n = 5–6/group
  less cFos activated AP neurons in RAMP1/3 KO vs WT mice: 57%
[3]; Cagrilintide (3 nmol/kg), WT vs. RAMP 1/3 KO
  Predicted (LS) mean diff., AP cFos after square root transformation: 2.537
[3]; RAMP 1/3 KO, Vehicle vs. Cagrilintide (3 nmol/kg), Tukey
  Predicted (LS) mean diff., AP cFos after square root transformation: -3.878
[3]; WT, Vehicle vs. Cagrilintide (3 nmol/kg), Tukey
  Predicted (LS) mean diff., AP cFos after square root transformation: -6.224
[3]; both 3 nmol/kg i.p., WT and KO mice, 90 min
  cFos activated neurons in the AP, cagrilintide compared to sCT: −75%
[4]
  cFos activated neurons in the LPBN, cagrilintide compared to sCT: −36%
[5]
  decrease of activated AP neurons in RAMP1/3 KO compared to WT-injected mice: 40%
rAMYR3
  Functional assay pEC50 [95% CI], cAMP, rAMYR3: 9.46 [0.03] M
rCTR(a)
  Functional assay pEC50 [95% CI], cAMP, rCTR(a): 9.54 [n.d] M
